Assay results: patent US20230210819A1, “USE OF BENZISOSELAZOLE DERIVATIVE FOR ANTI-CORONAVIRUS AND CONTROL OF INTERSTITIAL LUNG DISEASE (ILD) RELATED TO CORONAVIRUS” (SHANGHAI YUANXI MEDICINE CORP., priority 2020, published 2023)

Assays:
Assay type in all cases: in vivo, C57 mice
[1] = Body weight, bleomycin-induced mice, 7-d modeling; conditions: for Body weight decreased by: day 1 to day 28
Method: Animals of 7-d modeling were randomly divided into 7 groups according to the table below, 6 animals per control group and 12 animals per test group.
(§1) Drug administration began 24 h or 7 d after modeling. […] The day of the first administration was counted as D1, the next day as D2, and so forth. The normal groups and Model groups were given 200 µL of normal saline daily by gavage administration.
All the animals were observed once daily during the experiment for death or dying, feces, ingestion, mental state and behavior and activity. Abnormalities were recorded in time. All the animals were weighed once before grouping and once before each dose.
(§2) In this experiment, 105 C57 mice were randomly selected and subjected to organ drip administration of a single dose of bleomycin at 2.5 mg/kg for 24 h or 7 d for induction. After 7 days of induction, 3 model mice were randomly selected and dissected to determine whether the modeling was successful. After modeling, the survival of the mice was recorded. The living states of the mice were observed and their body weight was measured at a fixed time.
A normal control group comprised 6 mice.

[2] = system: bleomycin-induced mouse lung disease model; test: Lung and spleen coefficients, 24-h modeling
Method: (§3) Animals of 24-h modeling were randomly divided into 5 groups according to the table below, 3 animals per control group and 5 animals per test group.
as §1
Method: after being euthanized, the animals were dissected, and the heart, liver, spleen, lung and kidney were weighed.
as §2
A normal control group comprised 3 mice.

[3] = system: bleomycin-induced mouse lung disease model; test: Assay of lung tissues for hydroxyproline content, 24-h modeling; conditions: day 35 of administration
Method: as §3, §1
[…] 2 mL of pre-cooled normal saline was added. The tissues were cut into as many pieces as possible and centrifuged at 2000 rpm/min for 2 min, and the supernatant was discarded. • 2. To the precipitate was added 1 mL of RIPA lysis buffer (mixed protease inhibitor Cocktail was added in a ratio of 1:100 before use, and the resulting mixture was preserved on ice). […]
(II) Protein concentration assay by BCA • 1. […] A proper BCA working solution was freshly prepared according to the quantity of the standard substance and samples. […] The plate was incubated at 37° C. for 30 min, and the absorbance at 570 nm was measured on a microplate reader. The sample protein concentration was calculated from the standard curve.
(III) HYP level assay • 1. […] To each well was added 50 µL of terminating solution, and the absorbance was immediately measured at a wavelength of 450 nm. […]

[4] = system: bleomycin-induced mouse lung disease model; test: Lung HE pathological analysis (Ashcroft score), 24-h modeling; conditions: for HE score (pulmonary fibrosis, Ashcroft): 15 fields of view
Method: as §3, §1
1. […] Specifically, a mold was prepared first, and then the tissue was laid flat at the bottom of the mold; after the section face was arranged facedown, the embedding box cover was put on the mold; molten wax was poured into the mold until it overflowed the mold, and then the mold was gently lifted up and laid flat in a freezing platform; after being rapidly cooled and frozen for about 10 min, the mold was took out. • 6) Sectioning method
2. HE staining • 1) A flat section was selected for HE staining. • 2) The section was dewaxed in xylene I for 20 min. • 3) The section was dewaxed in xylene II for 20 min. • 4) The section was soaked in absolute ethanol for 10 min. • 5) Stepwise rehydrating, in absolute ethanol for 5 min, in 90% ethanol for 5 min, in 80% ethanol for 5 min, and in […] for 5 min; and a water wash. • 6) Staining with hematoxylin for 3-5 min. A water wash. • 7) Differentiating with 1% HCl-[…] for 5-10 s. A water wash, and bluing. • 8) Staining with eosin for 30-60 s. A water wash. • 9) Washing with 80% ethanol for 3-5 s, with 95% ethanol for 3-5 s, and with absolute ethanol for 3-5 s. • 10) Coverslipping with neutral resin, observing under a microscope, and photographing.
HE sectioning: 3 sections were consecutively made; flat sections of complete tissue were selected for HE staining; each of the sections was photographed in 3 randomly selected fields of view at 200x magnification. The obtained images were scored.
The general standard Ashcroft scoring method for pulmonary fibrosis tissues was adopted in HE scoring. The HE pathological analysis is an outcome evaluation for irreversible pulmonary fibrosis that develops in interstitial lung disease models.
For 5 animals from each of the 24-h modeling groups, a total of 15 HE fields of view were scored. […] According to the scoring criteria, a score below 3 points indicates there has been no significant structural change accompanying in the lung tissues.

[5] = 24-h modeling, BS 90 mg/kg gavage daily
[6] = Dex 1-1.5 mg/kg i.p. every two days
[7] = 24-h modeling, Dex 1-1.5 mg/kg i.p. every two days

O=c1c2ccccc2[se]n1CCCCn1[se]c2ccccc2c1=O [BS, 1,4-[bis(1,2-benzisoselenazol-3(2H)-one)]butane]
Body weight ([1]; BSH: BS 180 mg/kg gavage daily, D1): 19.88 ± 0.47 g | Body weight ([1]; BSH: BS 180 mg/kg gavage daily, D7): 19.45 ± 0.62 g | Body weight ([1]; BSH: BS 180 mg/kg gavage daily, D14): 19.26 ± 0.44 g | Body weight ([1]; BSH: BS 180 mg/kg gavage daily, D21): 19.13 ± 0.54 g | Body weight ([1]; BSH: BS 180 mg/kg gavage daily, D28): 19.19 ± 0.71 g | Body weight decreased by ([1]; BSH: BS 180 mg/kg gavage daily): 3.62% | Body weight ([1]; BSL: BS 36 mg/kg gavage daily, D1): 17.80 ± 0.72 g | Body weight ([1]; BSL: BS 36 mg/kg gavage daily, D7): 17.49 ± 0.84 g | Body weight ([1]; BSL: BS 36 mg/kg gavage daily, D14): 17.37 ± 0.80 g | Body weight ([1]; BSL: BS 36 mg/kg gavage daily, D21): 17.23 ± 0.76 g | Body weight ([1]; BSL: BS 36 mg/kg gavage daily, D28): 17.23 ± 0.82 g | Body weight decreased by ([1]; BSL: BS 36 mg/kg gavage daily): 3.39% | Body weight ([1]; BSM: BS 90 mg/kg gavage daily, D1): 18.20 ± 0.87 g | Body weight ([1]; BSM: BS 90 mg/kg gavage daily, D7): 17.89 ± 0.92 g | Body weight ([1]; BSM: BS 90 mg/kg gavage daily, D14): 17.63 ± 0.79 g | Body weight ([1]; BSM: BS 90 mg/kg gavage daily, D21): 17.46 ± 0.73 g | Body weight ([1]; BSM: BS 90 mg/kg gavage daily, D28): 17.41 ± 0.72 g | Body weight decreased by ([1]; BSM: BS 90 mg/kg gavage daily): 4.53% | Lung coefficient ([2]; BS 90 mg/kg gavage daily): 0.89±0.04% | Spleen coefficient ([2]; BS 90 mg/kg gavage daily): 0.37±0.02% | Effect on spleen coefficient (in words) ([2]; BS 90 mg/kg, effect better than that of Dex): significantly decrease the spleen coefficient | HY7P, hydroxyproline content in the lungs ([3]; BS 90 mg/kg gavage daily): 2.17 ± 0.19 µg/mL | Effect on lung tissue structure, HE (in words) ([4]; 24-h model, early stage of pulmonary fibrosis, BS 90 mg/kg): significantly reduce structural changes in lung tissues | HE score and benefit rate, >4 points (fields/total) [4, 5]: 3/15 | HE score and benefit rate, >4 points (percent of fields) [4, 5]: 20.0% | HE score and benefit rate, >5, points (fields/total) [4, 5]: 0/15 0/15 | HE score and benefit rate, >5, points (percent of fields) [4, 5]: 0% 0% | HE score and benefit rate, ≥3 points (fields/total) [4, 5]: 12/15 | HE score and benefit rate, ≥3 points (percent of fields) [4, 5]: 80.0% | HE score (pulmonary fibrosis, Ashcroft) [4, 5]: 3.00 ± 0.65 | Clear lung tissue damage (HE score up to 5 points), in words ([4]; 24-h modeling, after 35 days of administration, Dex 1-1.5 mg/kg, BS 90 mg/kg): no clear lung tissue damage occurred

C[C@@H]1C[C@H]2[C@@H]3CCC4=CC(=O)C=C[C@]4(C)[C@@]3(F)[C@@H](O)C[C@]2(C)[C@@]1(O)C(=O)CO [Dex, dexamethasone, reference compound]
Body weight ([1]; Dex 1-1.5 mg/kg i.p. every two days, D1): 17.79 ± 0.89 g | Body weight ([1]; Dex 1-1.5 mg/kg i.p. every two days, D7): 17.61 ± 1.02 g | Body weight ([1]; Dex 1-1.5 mg/kg i.p. every two days, D14): 17.45 ± 0.96 g | Body weight ([1]; Dex 1-1.5 mg/kg i.p. every two days, D21): 17.43 ± 0.92 g | Body weight ([1]; Dex 1-1.5 mg/kg i.p. every two days, D28): 17.38 ± 0.85 g | Body weight decreased by [1, 6]: 2.42% | Lung coefficient [2, 6]: 0.93±0.09% | Spleen coefficient [2, 6]: 0.41±0.06% | HY7P, hydroxyproline content in the lungs [3, 6]: 2.25 ± 0.31 µg/mL | HE score and benefit rate, >4 points (percent of fields) [4, 7]: 0% | HE score and benefit rate, >5, points (percent of fields) [4, 7]: 0% 0% | HE score and benefit rate, ≥3 points (percent of fields) [4, 7]: 53.3% | HE score (pulmonary fibrosis, Ashcroft) [4, 7]: 2.53 ± 0.52
